Laboratory results: patent US20020032176A1, “CARCINOGENESIS INHIBITORS” (priority 1996, published 2002)
Read-outs that look alike come from different tables or passages of the source.

Experiments:
[1] = tested on: Epstein-Barr virus early antigens in Raji cells; format: cell-based, human; details: 48 hours
Procedure: Epstein-Barr virus genome inactivating test is carried out as the first-stage screening test of anti-carcinogenesis promoter. In this test, inhibition of virus genome incident with tetradecanoylphorbolacetate (hereinafter called “TPA”) as its promoter, in a culture system of Raji cells is used as an indicator. The mentioned Raji cells are culture cells originated in species of […] lymph and holds Epstein-Barr virus genome inside. This method is not only rapid and quantitative but also available for detection of active substances in a small quantity.

Raji cells = details: 1000 Mol ratio/TPA (20 ng = 32 pmol/ml); 48 hours
Procedure: Measurement conditions of inactivation of Epstein-Barr virus genome incidence, using the acetone extracts and the hexane extracts, are as follows. PRMI1640 added embryonic serums and antibiotics are used as the culture liquid of Raji cells, virus latent infection-human lymphotropic bulbous cells. Under this culture conditions, the rate of natural incidence of Epstein-Barr virus of early antigens are not more than 0.1%. Raji cells, adjusted at the concentration of 1×10^6 cell/ml is cultured for 48 hours at 37° C. in the above described culture liquid after adding 4 mM of n-butyric acid, 20 ng/ml of TPA and 100 μg/ml of test substance. Then cells which generated Epstein-Barr virus early antigens are detected in the indirect immunofluorescence method using serums from epipharynx cancer patients. The ratio of positive cells calculated against the control without adding testisubstance is regarded as inactivation of virus genome incidence. In addition, the same inactivation were measured as varying the concentration of the test substance to 10, μg/ml and 1 μg/ml.

papilloma on mouse skin = experiment: Two-stage carcinogenesis inhibitory test on mouse skin (DMBA initiation, TPA promotion); format: in vivo, ICR female mice; details: for week after start of promotion on which the first tumor was formed: twice a week, positive control 7th week; for average number of tumors per mouse after 20 weeks: positive control 9.1; for carcinogenesis inhibitory effects (versus positive control tumors per mouse): 85 nmol test substance, after 20 weeks
Procedure: Body hair of one group of 15 ICR female mice (age 6 weeks) on their back were shaved and after 24 hours, applied (100 μg, 390 nmol) of 7,12-dimethylbenz[α]anthracene (hereinafter called “DMBA”) dissolved in acetone (0.1 ml) on their shaved skin of back as an initiation. Since one week later, each group of mice had been treated as follows:
First group: TPA (1 μg, 1.7 nmol) dissolved in acetone (0.1 ml) had been applied for 20 consecutive weeks, twice a week, as a promotion. During this treatment, additional acetone (0.1 ml) was applied on the same part one hour prior to each TPA application. (positive control group). […]
Until the 20th week since the start of a promotion by TPA application, incidence of papilloma on back of mice had been observed once a week. And the rate of mice with papilloma incidence and the average number of papilloma incidence per mouse were evaluated based on the comparison of the positive control group and the second group.
Body hair of one group of 15 ICR female mice (age 6 weeks) on their back were shaved and after 24 hours, applied ([…], 390 nmol) of 7,12-dimethylbenz[α]anthracene (hereinafter called “DMBA”) dissolved in acetone (0.1 ml) on their shaved skin of back as an initiation. Since one week later, each group of mice had been treated as follows:
Second-Fourth group: As the first group, TPA (1 μg, 1.7 nmol) dissolved in acetone (0.1 ml) had been applied for 20 consecutive weeks, twice a week, as a promotion but 85 nmol of test substance (capsanthin group) dissolved in acetone(0.1 ml) (separated by removing methanol extracts solvent), was applied one hour prior to each application instead of additional acetone. Each test substance was for Second group: Capsanthin, Third group: Capsanthin monoester, Fourth group: Capsanthin diester

[2] = 10 Mol ratio/TPA (20 ng = 32 pmol/ml)
[3] = 100 Mol ratio/TPA (20 ng = 32 pmol/ml)
[4] = 500 Mol ratio/TPA (20 ng = 32 pmol/ml)
[5] = 1000 Mol ratio/TPA (20 ng = 32 pmol/ml)
[6] = 85 nmol test substance on skin one hour prior to each TPA application

Row | Compound | % inhibitory rate [1, 2] | % inhibitory rate [1, 3] | % inhibitory rate [1, 4] | % inhibitory rate [1, 5] | % survival rate of Raji cells (Raji cells) | week after start of promotion on which the first tumor was formed (papilloma on mouse skin; [6]) | mice still free from tumor formation at the end of the 20-week experiment (papilloma on mouse skin; 85 nmol test substance on skin one hour prior to each TPA application, 20 weeks) | average number of tumors per mouse after 20 weeks (papilloma on mouse skin; [6]) | carcinogenesis inhibitory effects (versus positive control tumors per mouse) (papilloma on mouse skin)
1 | capsorubin diester | 7.2% | 28.0% | 73.9% | 100% | 70% |  |  |  | 
2 | cucurbitaxanthin A-3′ esters [Cucurbitaxanthin-A-3′-ester] | 0% | 13.8% | 61.0% | 100% | 70% |  |  |  | 
3 | CC(/C=C/C=C(C)/C=C/C(=O)[C@]1(C)C[C@@H](O)CC1(C)C)=C\C=C\C=C(C)\C=C\C=C(C)\C=C\[C@@]12O[C@@H](CC1(C)C)C[C@@]2(C)O [Capsantlim 3,6-epoxide, capsanthin 3,6-epoxide] | 5.4% | 20.8% | 67.2% | 100% | 70% |  |  |  | 
4 | capsanthin diester | 9.6% | 30.7% | 75.5% | 100% | 70% | 9 week | 13.3% | 4.5 | ~45%
5 | CC1=C(/C=C/C(C)=C/C=C/C(C)=C/C=C/C=C(C)/C=C/C=C(C)/C=C/C(=O)[C@]2(C)C[C@@H](O)CC2(C)C)C(C)(C)C[C@H](O)C1 [Capsanthin, capsanthin] | 0% | 17.6% | 59.7% | 91.4% | 70% | 7 week |  | 7.2 | approximately 23%
6 | CC1=C(/C=C/C(C)=C/C=C/C(C)=C/C=C/C=C(C)/C=C/C=C(C)/C=C/C2=C(C)CCCC2(C)C)C(C)(C)CCC1 [β-Carotene, reference compound] | 0% | 10.6% | 75.0% | 97.5% | 70% |  |  |  | 
7 | capsanthin monoester | 4.1% | 26.6% | 68.4% | 96.8% | 70% | 9 week |  | 6,5 | ~31%
8 | capsorubin | 0% | 19.9% | 64.1% | 100% | 70% |  |  |  | 
